Reference: patent US6610709B1, “2-n-substituted or unsubstituted-2-amino-5-methylpiperidine-3,4-diols and processes for the preparation thereof” (Zaidan Hojin Biseibutsu Kagaku Kenkyu Kai, priority 1999, dated 2003)

Columns and labels:
[1] = target: T1, α-L-fucosidase (from bovine liver) (Bos taurus, UniProt Q2KIM0); assay: α-fucosidase-inhibitory activity assay (Test Example 1); format: biochemical; conditions: substrate p-nitrophenyl α-L-fucopyranoside, citrate-phosphate buffer pH 6.3, 37° C., 60 minutes, read-out: 50% Inhibiory Concentration (IC50) Enzyme A (converted)
T1 construct: a product of Sigma Company, originated from bovine liver; purchased Sigma; host or cells: bovine liver
T1 sequence (Q2KIM0 23-468): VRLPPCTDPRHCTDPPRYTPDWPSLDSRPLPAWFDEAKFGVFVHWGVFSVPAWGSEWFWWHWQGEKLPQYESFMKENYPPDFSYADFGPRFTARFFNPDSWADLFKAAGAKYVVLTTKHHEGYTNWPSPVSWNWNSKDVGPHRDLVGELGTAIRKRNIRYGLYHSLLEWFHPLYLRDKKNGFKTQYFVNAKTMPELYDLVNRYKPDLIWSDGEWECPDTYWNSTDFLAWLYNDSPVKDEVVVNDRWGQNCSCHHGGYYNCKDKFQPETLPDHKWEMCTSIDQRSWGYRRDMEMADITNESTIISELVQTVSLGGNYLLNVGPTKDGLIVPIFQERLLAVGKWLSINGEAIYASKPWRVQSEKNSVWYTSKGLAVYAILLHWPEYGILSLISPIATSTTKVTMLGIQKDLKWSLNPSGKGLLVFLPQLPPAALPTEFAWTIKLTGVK
Protocol: This Test Example is a test example for determining the α-fucosidase-inhibitory activity of the compound of the general formula (I) according to this invention.
Assay of the α-fucosidase-inhibitory activity was conducted according to a modification of the method described in the “Journal of Biological Chemistry”, 252, pp.5194-5200 (1977).
(§1) Thus, 0.5 mL of 0.025M citrate-phosphate buffer (pH 6.3), 0.1 mL of the same buffer containing 1.5 mM p-nitrophenyl α-L-fucopyranoside dissolved therein, and 0.1 mL of either water or an aqueous solution containing as the tested compound any one of the compounds of the formulae (Ia), (Ib), (Ic) and (Id) according to this invention were mixed with each other and pre-incubated in a 96-well titer plate at 37° C. for 10 minutes. After the completion of the pre-incubation, to the pre-incubated mixture was added 0.01 mL of 0.025M citrate-phosphate buffer containing α-L-fucosidase (a product of Sigma Company, originated from bovine liver) dissolved therein, and thereafter the enzymatic reaction was conducted at 37° C. for 60 minutes. After the enzymatic reaction, to the resulting reaction solution was added 1.0 mL of 0.2M glycine-sodium hydroxide buffer (pH 10.5), in order to terminate the enzymatic reaction. Thereafter, the absorbance (designated as “a”) of light at 405 nm of the resulting reaction solution was measured. Concurrently, measurement was made of the absorbance (designated as “b”) of light at 405 nm of the reaction solution as obtained in the control test where the enzymatic reaction was conducted without addition of the test compound. Further, measurements were made of the absorbance (designated as “a′”) and the absorbance (designated as “b′”) of light at 405 nm of the reaction solutions as obtained in the blank tests where the enzymatic reaction had not been conducted in the assay test, and also in the control test for the blank tests, respectively.
(§2) The rate of inhibition to α-L-fucosidase was calculated by the equation: […]

[2] = target: β-D-glucosidase (from almonds); assay: β-glucosidase-inhibitory activity assay (Test Example 2); format: biochemical, almond; conditions: substrate p-nitrophenyl β-D-glucoside, same manner as Test Example 1
Protocol: as §1, §2
This Test Example is a test example for determining the α-glucosidase or β-glucosidase-inhibitory activity of the compounds according to this invention.
The evaluation of the α- or β-glucosidase-inhibitory activity was conducted according to a modification of the method described in the “Agricultural and Biological Chemistry”, 26, p.203 (1962). Namely, the test was conducted in the same manner as the test for the enzyme-inhibitory activity described in Test Example 1, except that either α-glucosidase originated from yeast, or β-glucosidase originated from almond (both enzymes are products of Sigma Company) was used as the glycosidase enzyme, and that p-nitrophenyl α-D-glucoside or p-nitrophenyl β-D-glucoside was used as the substrate. Furthermore, the enzyme-inhibitory activity was measured in the same manner as in Test Example 1, and the 50% inhibitions of the tested compounds against the enzymes were calculated, respectively.

Row | SMILES | IC50 [1] | 50% Inhibiory Concentration (IC50) Enzyme C [2]
1 | CC(=O)N[C@@H]1NC[C@@H](C)[C@@H](O)[C@H]1O [Compound of the Formula (Ia), (2S,3S,4R,5R)-2-acetamido-5-methylpiperidine-3,4-diol] | 584 nM | 2.3 µg/mL
2 | C[C@@H]1CN[C@@H](N)[C@H](O)[C@@H]1O [Compound of the Formula (Ie), (2R,3S,4R,5R)-2-amino-5-methylpiperidine-3,4-diol] | 20.5 nM | 50 µg/mL
3 | C[C@@H]1CN[C@@H](NC(=O)C(Cl)(Cl)Cl)[C@H](O)[C@@H]1O [Compound of the Formula (Ic), (2S,3S,4R,5R)-2-trichloroacetamido-5-methyl-piperidine-3,4-diol] | 10.3 nM | 50 µg/mL
4 | C[C@@H]1CN[C@@H](NC(=O)C(F)(F)F)[C@H](O)[C@@H]1O [Compound of the Formula (Ib), (2S,3S,4R,5R)-2-trifluoroacetamido-5-methyl-piperidine-3,4-diol] | 12.4 nM | 55 µg/mL
5 | C[C@@H]1CN[C@@H](N2C(=O)c3ccccc3C2=O)[C@H](O)[C@@H]1O [Compound of the Formula (Id), (2S,3S,4R,5R)-2-phthalimido-5-methylpiperidine-3,4-diol] | 14.5 nM | 60 µg/mL
